Assay results published in patent US5700804A, “Pharmaceutical compounds” (Xenova Limited, priority 1992, dated 1997).

Target: PAI-1 (Homo sapiens, UniProt P05121)
Assay: PAI chromogenic substrate assay (first S2251 assay, tPA/plasminogen system)
Format: biochemical
Experimental: In this assay, a compound is incubated with PAI-1 prior to addition to the tPA assay system. Inhibition of PAI-1 results in the production of plasmin from plasminogen. In turn, plasmin cleaves the chromogenic substrate S2251 (Kabi Vitrum) producing pNA (p-nitroaniline) which is detected spectrophotometrically at 405 nm (K. Nilsson et al, Fibrinolysis (1987) 1, 163-168).
Compounds of formula (A) were tested in a PAI chromogenic substrate assay. In the first assay (K. Nilsson, Fibrinolysis (1987) 1, 163-168) each compound was incubated with PAI-1 prior to addition to the tPA assay system. […] In turn, the plasmin cleaved the chromogenic substrate S2251 (Kabi-Vitrum) producing pNA (p-nitroaniline) which was detected spectrophotometrically at 405 nm.

Sequence of PAI-1 (P05121 24-402): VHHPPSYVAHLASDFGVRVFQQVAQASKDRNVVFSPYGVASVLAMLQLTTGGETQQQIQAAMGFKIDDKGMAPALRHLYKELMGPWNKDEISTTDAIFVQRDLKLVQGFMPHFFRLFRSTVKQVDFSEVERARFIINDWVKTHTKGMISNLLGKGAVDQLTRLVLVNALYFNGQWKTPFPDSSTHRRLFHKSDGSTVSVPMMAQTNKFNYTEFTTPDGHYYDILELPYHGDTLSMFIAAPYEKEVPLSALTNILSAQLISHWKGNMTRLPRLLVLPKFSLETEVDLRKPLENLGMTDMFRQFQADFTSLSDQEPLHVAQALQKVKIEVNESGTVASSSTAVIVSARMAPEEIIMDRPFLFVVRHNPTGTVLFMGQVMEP

| Inhibition of PAI-1 in the first S2251 chromogenic substrate assay (Concentration 12.5 μm) [%] | Inhibition of PAI-1 in the first S2251 chromogenic substrate assay (Concentration 25 μm) [%] | Inhibition of PAI-1 in the first S2251 chromogenic substrate assay (Concentration 50 μm) [%] | Inhibition of PAI-1 in the first S2251 chromogenic substrate assay (Concentration 100 μm) [%] | Inhibition of PAI-1 in the first S2251 chromogenic substrate assay (Concentration 7.5 μm) [%] | Inhibition of PAI-1 in the first S2251 chromogenic substrate assay (Concentration 15 μm) [%] | Inhibition of PAI-1 in the first S2251 chromogenic substrate assay (Concentration 30 μm) [%] | Inhibition of PAI-1 in the first S2251 chromogenic substrate assay (Concentration 60 μm) [%] | Inhibition of PAI-1 in the first S2251 chromogenic substrate assay (Concentration 3.75 μm) [%] | Inhibition of PAI-1 in the first S2251 chromogenic substrate assay (Concentration 6.25 μm) [%] | Compound |
| --- | --- | --- | --- | --- | --- | --- | --- | --- | --- | --- |
| 5 | 38 | 61 | 79 |  |  |  |  |  |  | CC(C)(C)c1ccc(/C=c2\[nH]c(=O)/c(=C/c3ccccc3)[nH]c2=O)cc1 [Compound 51, (3Z,6Z)-6-Benzylidene-3-(4-tert-butylbenzylidene)-2,5-piperazinedione] |
| 2 | 15 | 45 | 68 |  |  |  |  |  |  | CC(C)Oc1ccc(/C=c2\[nH]c(=O)/c(=C/c3ccccc3)[nH]c2=O)cc1 [Compound 52, (3Z,6Z)-6-Benzylidene-3-(4-isopropoxybenzylidene)-2,5-piperazinedione] |
| 2 | 9 | 32 | 55 |  |  |  |  |  |  | COc1ccc(/C=c2\[nH]c(=O)/c(=C/c3ccccc3Br)[nH]c2=O)cc1 [Compound 53, (3Z,6Z)-3-(2-Bromobenzylidene)-6-(4-methoxybenzylidene)-2,5-piperazinedione] |
| 0 | 1 | 0 | 50 |  |  |  |  |  |  | O=c1[nH]/c(=C\c2ccc(F)cc2F)c(=O)[nH]/c1=C\c1ccccc1 [Compound 54, (3Z,6Z)-6-Benzylidene-3-(2,4-difluorobenzylidene)-2,5-piperazinedione] |
| 1 | 11 | 43 | 65 |  |  |  |  |  |  | O=c1[nH]/c(=C\c2ccccc2Br)c(=O)[nH]/c1=C\c1ccccc1 [Compound 55, (3Z,6Z)-6-Benzylidene-3-(2-bromobenzylidene)-2,5-piperazinedione] |
| 2 | 38 | 72 | 82 |  |  |  |  |  |  | COc1ccc(/C=c2\[nH]c(=O)/c(=C/c3ccc(CSC)cc3)[nH]c2=O)cc1 [Compound 57, (3Z,6Z)-3-(4-Methoxybenzylidene)-6-(4-methylthiomethylbenzylidene)-2,5-piperazinedione] |
| 19 | 60 | 76 | 71 |  |  |  |  |  |  | CSCc1ccc(/C=c2\[nH]c(=O)/c(=C/c3ccccc3)[nH]c2=O)cc1 [Compound 59, (3Z,6Z)-6-Benzylidene-3-(4-methylthiomethylbenzylidene)-2,5-piperazinedione] |
| 1 | 25 | 52 | 62 |  |  |  |  |  |  | COc1ccc(/C=c2\[nH]c(=O)/c(=C/c3ccc(CS(C)(=O)=O)cc3)[nH]c2=O)cc1 [Compound 60, (3Z,6Z)-3-(4-Methoxybenzylidene)-6-(4-methylsulfonylmethylbenzylidene)-2,5-piperazinedione] |
| 36 | 13 | 33 | 83 |  |  |  |  |  |  | COC(=O)c1cccc(/C=c2\[nH]c(=O)/c(=C/c3ccccc3)[nH]c2=O)c1 [Compound 62, 3-((3Z,6Z)-6-Benzylidene-2,5-dioxopiperazin-3-ylidene)methylbenzoic acid, methyl ester] |
|  |  |  |  | 17 | 63 | 87 | 100 |  |  | O=c1[nH]/c(=C\c2cccc(CS)c2)c(=O)[nH]/c1=C\c1ccccc1 [Compound 64, (3Z,6Z)-6-Benzylidene-3-(3-mercaptomethylbenzylidene)-2,5-piperazinedione] |
| 3 | 14 | 40 | 68 |  |  |  |  |  |  | COc1ccc(/C=c2\[nH]c(=O)/c(=C/c3ccc(F)cc3F)[nH]c2=O)cc1 [Compound 69, (3Z,6Z)-3-(2,4-Difluorobenzylidene)-6-(4-methoxybenzylidene)-2,5-piperazinedione] |
| 4 | 21 | 78 | 94 |  |  |  |  |  |  | COc1ccc(/C=c2\[nH]c(=O)/c(=C/c3ccccc3C(F)(F)F)[nH]c2=O)cc1 [Compound 70, (3Z,6Z)-3-(4-Methoxybenzylidene)-6-(2-trifluoromethylbenzylidene)-2,5-piperazinedione] |
|  |  |  |  | 1 | 51 | 64 | 52 | 1 |  | CC(=O)Nc1ccc(/C=c2\[nH]c(=O)/c(=C/c3ccccc3F)[nH]c2=O)cc1 [Compound 71, (3Z,6Z)-3-(4-Acetamidobenzylidene)-6-(2-fluorobenzylidene)-2,5-piperazinedione] |
|  |  |  |  | 1 | 18 | 75 | 76 | 2 |  | CC(=O)Nc1ccc(/C=c2\[nH]c(=O)/c(=C/c3ccc(F)cc3)[nH]c2=O)cc1 [Compound 72, (3Z,6Z)-3-(4-Acetamidobenzylidene)-6-(4-fluorobenzylidene)-2,5-piperazinedione] |
| 2 | 1 | 3 | 50 |  |  |  |  |  |  | COc1ccc(/C=c2\[nH]c(=O)/c(=C/c3ccc(OC)cc3OC)[nH]c2=O)cc1 [Compound 73, (3Z,6Z)-3-(2,4-Dimethoxybenzylidene)-6-(4-methoxybenzylidene)-2,5-piperazinedione] |
| 6 | 33 | 52 | 59 |  |  |  |  |  | 2 | CN(C)CCCOc1ccc(/C=c2\[nH]c(=O)/c(=C/c3ccccc3)[nH]c2=O)cc1 [Compound 75, (3Z,6Z)-6-Benzylidene-3-(4-(3-N,N-dimethylaminopropoxy)benzylidene)-2,5-piperazinedione] |

| Compound | Inhibition of PAI-1 in the first S2251 chromogenic substrate assay (Concentration 12.5 μm) [%] | Inhibition of PAI-1 in the first S2251 chromogenic substrate assay (Concentration 25 μm) [%] | Inhibition of PAI-1 in the first S2251 chromogenic substrate assay (Concentration 50 μm) [%] | Inhibition of PAI-1 in the first S2251 chromogenic substrate assay (Concentration 100 μm) [%] | Inhibition of PAI-1 in the first S2251 chromogenic substrate assay (Concentration 7.5 μm) [%] | Inhibition of PAI-1 in the first S2251 chromogenic substrate assay (Concentration 15 μm) [%] | Inhibition of PAI-1 in the first S2251 chromogenic substrate assay (Concentration 30 μm) [%] | Inhibition of PAI-1 in the first S2251 chromogenic substrate assay (Concentration 60 μm) [%] | Inhibition of PAI-1 in the first S2251 chromogenic substrate assay (Concentration 3.75 μm) [%] | Inhibition of PAI-1 in the first S2251 chromogenic substrate assay (Concentration 6.25 μm) [%] |
| --- | --- | --- | --- | --- | --- | --- | --- | --- | --- | --- |
| COc1ccc(/C=c2\[nH]c(=O)/c(=C/c3ccc(CNC(=O)OC(C)(C)C)cc3)[nH]c2=O)cc1 [Compound 56, (3Z,6Z)-(4-Methoxybenzylidene)-6-(4-tert-butoxycarbonylaminomethylbenzylidene)-2,5-piperazinedione] | 2 | 15 | 60 | 82 |  |  |  |  |  |  |
| CC(=O)Nc1ccc(/C=c2\[nH]c(=O)/c(=C/c3ccc(COC(C)=O)cc3)[nH]c2=O)cc1 [Compound 58, (3Z,6Z)-3-(4-Acetamidobenzylidene)-6-(4-acetoxymethylbenzylidene)-2,5-piperazinedione] | 1 | 1 | 31 | 60 |  |  |  |  |  |  |
| CC(=O)SCc1cccc(/C=c2\[nH]c(=O)/c(=C/c3ccccc3)[nH]c2=O)c1 [Compound 61, (3Z,6Z)-6-Benzylidene-3-(3-thioacetoxymethylbenzylidene)-2,5-piperazinedione] | 26 | 69 | 88 | 83 |  |  |  |  |  |  |
| COc1ccc(/C=c2\[nH]c(=O)/c(=C/c3cccc(CSC(C)=O)c3)[nH]c2=O)cc1 [Compound 63, (3Z,6Z)-3-(4-Methoxybenzylidene)-6-(3-thioacetoxymethylbenzylidene)-2,5-piperazinedione] | 36 | 44 | 70 | 69 |  |  |  |  |  |  |
| CC(C)(C)OC(=O)NCc1ccc(/C=c2\[nH]c(=O)/c(=C/c3ccccc3)[nH]c2=O)cc1 [Compound 66] | 2 | 46 | 70 | 85 |  |  |  |  |  |  |
| CC(=O)Nc1ccc(/C=c2\[nH]c(=O)/c(=C/c3ccc(CNC(=O)OC(C)(C)C)cc3)[nH]c2=O)cc1 [Compound 68, (3Z,6Z)-3-(4-Acetamidobenzylidene)-6-(4-tert-butoxycarbonylaminomethylbenzylidene)-2,5-piperazinedione] | 37 | 67 | 89 | 63 |  |  |  |  |  |  |
